Organism: Rattus norvegicus
Assay: Open TG-GATES - Regimen: Daily Repeat
Format: toxicity, organism-based, Sprague-Dawley
Parameters: regimen Daily Repeat, gender Male, age 6 weeks
Conditions: in vivo, iv, 300 mg/kg, route intravenous injection, dose level Low; for APTT / Bas / Eos / Fbg / Hb / Ht / Lym / MCH / MCHC / MCV / Mono / Neu / PT / Plat / RBC / Ret / WBC: tissue Blood
[1] = 72 h, tissue Kidney, time 3 day
[2] = 72 h, tissue Plasma, time 3 day

Compound: CC(=O)OCC1=C(C(=O)O)N2C(=O)[C@@H](NC(=O)Cc3cccs3)[C@H]2SC1 [CEPHALOTHIN]
- TERMINAL_BW (72 h, time 3 day): 226.8 g
- APTT (72 h, time 3 day): 22.4 s
- Bas (72 h, time 3 day): 0%
- Eos (72 h, time 3 day): 1.2%
- Fbg (72 h, time 3 day): 291.2 mg/dL
- Hb (72 h, time 3 day): 13.4 g/dL
- Ht (72 h, time 3 day): 38.4%
- Lym (72 h, time 3 day): 84.4%
- MCH (72 h, time 3 day): 21.1 pg
- MCHC (72 h, time 3 day): 35%
- MCV (72 h, time 3 day): 60.2 fL
- Mono (72 h, time 3 day): 2.8%
- Neu (72 h, time 3 day): 10.6%
- PT (72 h, time 3 day): 16.2 s
- Plat (72 h, time 3 day): 131.5 x10_4/uL
- RBC (72 h, time 3 day): 636.8 x10_4/ul
- Ret (72 h, time 3 day): 6%
- WBC (72 h, time 3 day): 103.7 x10_2/uL
- KIDNEY_L [1]: 1 g
- KIDNEY_R [1]: 1 g
- KIDNEY_TOTAL [1]: 1.9 g
- LIVER (72 h, tissue Liver, time 3 day): 10.3 g
- ALP [2]: 1513.6 IU/L
- ALT [2]: 37.8 IU/L
- AST [2]: 68.2 IU/L
- BUN [2]: 15.6 mg/dL
- CRE [2]: 0.1 mg/dL
- Ca [2]: 10.7 mg/dL
- Cl [2]: 106 meq/L
- DBIL [2]: 0 mg/dL
- GLC [2]: 175.4 mg/dL
- IP [2]: 6.1 mg/dL
- K [2]: 4.6 meq/L
- LDH [2]: 166 IU/L
- Na [2]: 140.4 meq/L
- PL [2]: 140 mg/dL
- RALB [2]: 3.1 g/dL
- TBIL [2]: 0.008 mg/dL
- TC [2]: 75.8 mg/dL
- TG [2]: 106.4 mg/dL
- TP [2]: 5.5 g/dL
- gamma-GTP [2]: 1.6 IU/L
- TERMINAL_BW ([…], time 7 day): 260.2 g
- TERMINAL_BW ([…], time 14 day): 304.3 g
- TERMINAL_BW ([…], time 28 day): 378.7 g
- APTT ([…], time 7 day): 22.5 s
- Bas ([…], time 7 day): 0%
- Eos ([…], time 7 day): 0.8%
- Fbg ([…], time 7 day): 310 mg/dL
- Hb ([…], time 7 day): 13.5 g/dL
- Ht ([…], time 7 day): 38.9%
- Lym ([…], time 7 day): 88.8%
- MCH ([…], time 7 day): 20.8 pg
- MCHC ([…], time 7 day): 34.6%
- MCV ([…], time 7 day): 60.2 fL
- Mono ([…], time 7 day): 1.6%
- Neu ([…], time 7 day): 7.8%
- PT ([…], time 7 day): 16.7 s
- Plat ([…], time 7 day): 122.1 x10_4/uL
- RBC ([…], time 7 day): 647 x10_4/ul
- Ret ([…], time 7 day): 5.6%
- WBC ([…], time 7 day): 91 x10_2/uL
- APTT ([…], time 14 day): 24.3 s
- Bas ([…], time 14 day): 0%
- Eos ([…], time 14 day): 1%
- Fbg ([…], time 14 day): 257.6 mg/dL
- Hb ([…], time 14 day): 14.4 g/dL
- Ht ([…], time 14 day): 40.4%
- Lym ([…], time 14 day): 89.8%
- MCH ([…], time 14 day): 20.7 pg
- MCHC ([…], time 14 day): 35.6%
- MCV ([…], time 14 day): 58.2 fL
- Mono ([…], time 14 day): 1.8%
- Neu ([…], time 14 day): 6.8%
- PT ([…], time 14 day): 16.1 s
- Plat ([…], time 14 day): 121.1 x10_4/uL
- RBC ([…], time 14 day): 694 x10_4/ul
- Ret ([…], time 14 day): 4.7%
- WBC ([…], time 14 day): 103.2 x10_2/uL
- APTT ([…], time 28 day): 25.4 s
- Bas ([…], time 28 day): 0%
- Eos ([…], time 28 day): 1.6%
- Fbg ([…], time 28 day): 293.8 mg/dL
- Hb ([…], time 28 day): 15.4 g/dL
